From PMC8838991, “Exploring the Synergistic Anticancer Potential of Benzofuran–Oxadiazoles and Triazoles: Improved Ultrasound- and Microwave-Assisted Synthesis, Molecular Docking, Hemolytic, Thrombolytic and Anticancer Evaluation of Furan-Based Molecules” (Molecules, 2022)
Values joined by “and” are separate entries in the source; they are usually repeats but may differ in a detail not shown here. Equal values may be shown once.

Assays:
Hemolysis assay = type: cell-based; conditions: human, red blood cells (washed RBC pellet); read-out: Percentage Hemolysis ± SD
Procedure: A fresh blood sample (5 mL) from a healthy donor was collected in an EDTA tube. The blood was transferred to microcentrifuge tubes and centrifugedfor 5 min at 1000 rpm to obtain the red blood cells (RBCs). The supernatant was then discarded, and the RBCpellet was washed three times with phosphate-buffered saline (PBS). The RBC pellet was collected after washing and 20µL of sample solution in DMSO was added. The tubes were incubated at 37 °C for 60 min. Having been removed from the incubator, the tubes were recentrifuged at 13,000 rpm for 5 min. The supernatant was collected and diluted with chilled PBS solution. Absorbance was recordedat 517 nm. […] The experiment wasconducted in triplicate, and the RBC lysis percentage was calculated using this formula [40]: % Age hemolysis =Absorbance of sample−Absorbance of negative control ×100/Absorbance of positive control

blood clot = test: Thrombolysis assay (clot lysis); set-up: species or system human; conditions: sample solution in DMSO, 3 h at 37 °C, ABTS positive control, triplicate
Procedure: The thrombolytic assay was performedaccording tomethodologyin the literature. A blood sample (3 mL) was collected from a healthy human donor, and 500 µL was transferred to pre-weighed, clean Eppendorf tubes. The tubes containing the blood wereweighed again andincubatedfor 1 h at 37 °C to induce clot formation. The serum was then discarded, and the tube containing theclot was weighed. An amount of 40 µL of sample solution in DMSO was added to the clot.The tubes were again incubated for 3 h at 37 °C, and the lysis resultswere observed. ABTS was used as a positivecontrol, while DMSO was used as a negative control in this assay. The experiment was performed in triplicate, and the lysis percentage was calculated using the formula below: % Age clot lysis =Initial clot weight−Final clot weight ×100/Initial clot weight

[1] = test system: A549 lung cancer cell line; test: MTT assay, cell viability; type: cell-based, human; conditions: A549, 48 h, mean ± SD in triplicate
Procedure: The A549 cell line was treated with synthesized compounds in a final concentration of DMSO (dimethyl sulfoxide) of less than 1%.
The cytotoxic therapeutic potential of synthesized structural hybrids was evaluated usinga standard MTT (3-(4,5-dimethylthiazol-2-yl)-2,5-diphenyltetrazolium bromide) assay. The cells of theA549 cell line were grown, overnight, in a microculture of 96-well plates. […] Following this, 150 μL of control DMSO was added to formazan crystals.The percentage of cell viability was determined viaquantified absorbance in a microplate readerat 490 nm wavelength.

Structure (SMILES)	hemolysis at 60 min (Hemolysis assay) [%]	Percentage Thrombolysis ± SD (blood clot)	Percentage Cell viability A549 (Lung Cancer) ± SD [1] [%]	IC50 ([1]; Homo sapiens) [µM]	melting point [°C]	IC50 [1] [µM]
COc1ccccc1NC(=O)CSc1nnc(-c2cc3ccccc3o2)o1 [Compound 5d]	5.02 ± 0.008	53.5% and 53.5 ± 0.081%	27.49 ± 1.90	6.3 ± 0.7	176 to 178	
C[C@@H](Oc1cc(-c2cnn(C3CCNCC3)c2)cnc1N)c1c(Cl)ccc(F)c1Cl [Crizotinib, crizotinib, reference compound]				8.54 ± 0.84		
CCOc1ccc(NC(=O)CSc2nnc(-c3cc4ccccc4o3)o2)cc1 [Compound 5e]	0.5 ± 0.008	52.4% and 52.4 ± 0.081%	34.47 ± 2.19	17.9 ± 0.46	154 to 156	
N.N.[Cl][Pt][Cl] [Cisplatin, cisplatin, reference compound]						3.88 ± 0.76
CCN(CC)C(=O)CSc1nnc(-c2cc3ccccc3o2)o1 [Compound 5g]	4.86 ± 0.047	48.3% and 48.3 ± 0.081%	41.45 ± 4.10		96 to 97	
O=C(CSc1nnc(-c2cc3ccccc3o2)o1)Nc1ccccc1 [Compound 5a]	3.7 ± 0.008	56.8% and 56.8 ± 0.081%	64.1 ± 1.72		212 to 214	
Cc1ccc(NC(=O)CSc2nnc(-c3cc4ccccc4o3)n2-c2ccccc2)c(C)c1 [Compound 7f]	15.7 ± 0.081	61.4% and 61.4 ± 0.081%	99.1 ± 5.04		226 to 227	
O=C(CSc1nnc(-c2cc3ccccc3o2)o1)N1CCOCC1 [Compound 5b]	22.12 ± 0.008	50.7% and 50.7 ± 0.081%	45.99 ± 4.22		181 to 182	
O=C(CSc1nnc(-c2cc3ccccc3o2)n1-c1ccccc1)N1CCOCC1 [Compound 7b]	0.1 ± 0.004	52.5% and 52.5 ± 0.081%	57.62 ± 4.94		173 to 175	
O=C(CSc1nnc(-c2cc3ccccc3o2)n1-c1ccccc1)Nc1ccc(Cl)cc1Cl [Compound 7h]	14.8 ± 0.081	48.1% and 48.1 ± 0.081%	29.29 ± 3.98	10.9 ± 0.94	217 to 219	
CCn1c(=NN=c2sc3cc(S(=O)(=O)O)ccc3n2CC)sc2cc(S(=O)(=O)O)ccc21 [ABTS, reference compound]		86%				
O=C(CSc1nnc(-c2cc3ccccc3o2)n1-c1ccccc1)Nc1ccc(Cl)cc1 [Compound 7g]	23.4 ± 0.081	49.06% and 49.06 ± 0.047%	36.26 ± 0.41	19.8 ± 0.54	229 to 230	
